Results published in US20240254095A1, “NMDA Receptor Antagonist and Use Thereof” (priority 2021, published 2024).
“Also recorded” adds a separate entry of the source. Where a name gives a salt, the structure may show the parent alone. Read-outs that look alike come from different tables or passages of the source.

How the values were obtained:
mice = experiment: High dose toxicity test (behavior of mice after i.p. administration); type: in vivo; set-up: key to Rodent Epileptiform Behavior Scale score (maximum): 0: No abnormal behavior; 1: Unsteady walking/reduced exercise ability/immobility; 2: Generalized clonus/trembling/writhing; 3: The tail is stiff/swinging; 4: Forelimb contractures; 5: Generalized spasms/convulsions; 6: Startle or running convulsive seizures; 7: Generalized tonic-clonic seizures; 8: dead; conditions: for behavior during observation: observed about one hour; for Rodent Epileptiform Behavior Scale score (maximum): scale 0-8
Protocol: • 1. Experiments were performed in a quiet environment where animals needed to be weighed and acclimatized in the laboratory room for at least 30 min before the experiment. • 2. The compound to be tested was dissolved with 0.9% physiological saline at a concentration of 10 mg/ml. According to the body weight of mice, a corresponding volume of the compound was intraperitoneal injected (i.p.), so as to provide the target dose. • 3. The mice after administration were placed in transparent observation boxes, and the behavioral changes of the mice were recorded by video and observed for about one hour. (Note: During the observation period, if a mouse was lying still on the stomach, the mouse was turned over with your hand to check whether the righting reflex (RR) of the mouse disappeared. If it disappeared, the mouse was in the state of anesthesia, the time of anesthesia in the mouse was recorded). • 4. After one hour of observation, the mice were returned to the feeding cage and the observation boxes were wiped with 75% alcohol so that the information left over from the previous round (e.g. animal stool, urine and other odors) would not affect the next test results. Animals were replaced for the next round to continue the experiment.
Mice died after ketamine administration.
According to Rodent Epileptiform Behavior Scale score, Compound 9 induced epileptiform behavior in mice with a maximum score of 3. […] According to the Rodent Epileptiform Behavior Scale score. Compound 41 and 42 induced epileptiform behavior in mice with a maximum score of 1. […] The epileptiform behavior was scored according to the Rodent Epileptiform Behavior Scale score.

[1] = target: T1, human NMDA receptors GluN1 and GluN2A subunits (GluN2A-containing NMDAR) (Homo sapiens, UniProt Q05586+Q12879); experiment: cell-based
T1 construct: expressed in transfected cells; host or cells: HEK293 cells, transient liposome transfection of TRE-GluN1-GluN2A, tTA and pCAG-EGFP
T1 sequence (Q12879 23-1464, other chains not shown): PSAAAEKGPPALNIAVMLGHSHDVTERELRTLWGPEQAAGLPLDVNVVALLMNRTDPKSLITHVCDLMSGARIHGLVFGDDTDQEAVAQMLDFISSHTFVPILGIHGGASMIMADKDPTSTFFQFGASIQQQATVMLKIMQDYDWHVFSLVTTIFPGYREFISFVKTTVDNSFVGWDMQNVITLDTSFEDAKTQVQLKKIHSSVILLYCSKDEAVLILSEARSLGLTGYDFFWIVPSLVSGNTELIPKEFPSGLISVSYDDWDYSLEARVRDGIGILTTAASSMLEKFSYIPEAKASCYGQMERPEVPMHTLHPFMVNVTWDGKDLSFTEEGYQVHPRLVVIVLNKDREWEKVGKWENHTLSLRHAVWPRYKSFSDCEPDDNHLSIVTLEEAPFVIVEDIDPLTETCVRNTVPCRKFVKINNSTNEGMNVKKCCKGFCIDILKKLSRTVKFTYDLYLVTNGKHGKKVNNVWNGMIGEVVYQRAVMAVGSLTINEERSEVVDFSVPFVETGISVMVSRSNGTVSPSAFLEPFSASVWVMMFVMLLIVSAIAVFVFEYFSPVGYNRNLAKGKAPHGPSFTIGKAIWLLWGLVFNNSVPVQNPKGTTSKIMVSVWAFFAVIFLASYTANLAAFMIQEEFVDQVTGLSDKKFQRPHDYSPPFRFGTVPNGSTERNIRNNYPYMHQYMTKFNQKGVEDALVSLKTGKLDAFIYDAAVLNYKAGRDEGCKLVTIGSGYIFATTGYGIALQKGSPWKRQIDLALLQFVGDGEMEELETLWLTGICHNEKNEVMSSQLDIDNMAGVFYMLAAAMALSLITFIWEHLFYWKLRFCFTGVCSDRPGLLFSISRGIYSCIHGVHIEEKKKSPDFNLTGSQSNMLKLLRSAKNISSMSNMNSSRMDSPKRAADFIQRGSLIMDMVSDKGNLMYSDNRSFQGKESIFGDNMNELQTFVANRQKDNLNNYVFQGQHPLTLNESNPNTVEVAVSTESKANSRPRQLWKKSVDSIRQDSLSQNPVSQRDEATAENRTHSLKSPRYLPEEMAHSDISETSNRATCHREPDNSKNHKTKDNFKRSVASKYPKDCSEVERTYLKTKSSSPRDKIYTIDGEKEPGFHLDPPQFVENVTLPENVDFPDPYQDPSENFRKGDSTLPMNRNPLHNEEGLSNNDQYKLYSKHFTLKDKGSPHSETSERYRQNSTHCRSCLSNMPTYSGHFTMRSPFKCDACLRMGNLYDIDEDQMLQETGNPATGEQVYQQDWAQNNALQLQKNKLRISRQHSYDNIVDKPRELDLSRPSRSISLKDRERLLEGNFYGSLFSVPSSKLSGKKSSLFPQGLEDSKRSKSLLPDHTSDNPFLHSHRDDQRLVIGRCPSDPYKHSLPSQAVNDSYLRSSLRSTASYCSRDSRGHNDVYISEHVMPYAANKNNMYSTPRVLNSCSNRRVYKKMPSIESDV
Protocol: On the day before transfection, HEK293 cells were seeded in a 24-well plate with a 10 mm glass sheet, which was coated with polylysine in advance to increase the adhesion capacity of the cells. The plate was added with DMEM medium containing 10% FBS and incubated at 37° C., in 5% CO2 incubator. When the cell fusion reached 60%-70% after 18-24 hours, the plasmid cDNAs containing TRE-GluN1-GluN2A of human GluN1 and GluN2A, tTA, and pCAG-EGFP were transfected into HEK293 by liposome transfection (TRE-GluN1-GluN2A:tTA:pCAG-EGFP is 0.2 μg:0.2 μg:0.02 μg). Before transfection, anew DMEM medium was changed and added with 1 μg/mL Dox (doxycycline) to induce stable expression in the medium, and added with 100 μM D-APV and 10 mM MgCl2 to avoid cell excitatory toxicity caused by NMDAR overexpression. Cells with green fluorescence were selected for electrophysiological recording after transfection for about 24 h.
A glass plate seeded with HEK293 cells was placed in a recording bath and perfused with the extracellular fluid at a rate of 4 mL/min (NaCl 140 mM, KCl 2.8 mM, HEPES 10 mM, CaCl2 1 mM, glycine 0.1 mM, pH 7.2). The channels of the ALA-VC^3 eight-channel pressure perfusion system were filled with extracellular fluid for washing, extracellular fluid containing glutamic acid (100 μM), and extracellular fluid containing glutamic acid and compound to be tested, respectively, with a drop rate of about 1 drop/sec and 10 μL/drop. HEK293 cells with moderate green fluorescence intensity and good adhesion were selected under a fluorescence microscope for recording. The microglass tube of the perfusion system was placed about ten cells away from the cells to be recorded, and the drug was sprayed to the cell surface under the pressure of air (0.02 MPa). The glass electrode was prepared by drawing with a microelectrode drawing instrument with a resistance of 4-6 MΩ and filled with electrode liquid (CsCl 125 mM, HEPES 10 mM, EGTA 11 mM). The microelectrode manipulator was used to slowly push the glass electrode towards the cells. The electrode was attached to the cell membranes and applied with negative pressure, so that a high-resistance seal of more than 1 GΩ was formed between the electrode tip and the cell membrane, and then negative pressure was given to suck through the cell membrane to form a whole-cell recording mode. After the formation of whole-cell recording mode, the cell membrane potential was clamped at −70 mV. The extracellular fluid containing 100 μM glutamic acid, the extracellular fluid containing 100 μM glutamic acid and the compound to be tested, and the extracellular fluid were sprayed to the cell membrane surface sequentially through the perfusion system for 10 s, 20 s, and 10 s to record the NMDA receptor-mediated current and evaluate the inhibitory effect of the compound on GluN2A-containing NMDAR. The experimental process was controlled by pCLAMP 10.6, and the Digidata 1440A digital-to-analog converter was used to complete the generation of stimulus signal and the acquisition of feedback signal.
The ordinate in the figure is the normalized current ratio, which represents the ratio of the current mediated by NMDAR after administration of ketamine and the compound at a concentration of 10 μM to the current mediated by NMDAR before administration. […] Ketamine was used as a positive control.
The inhibitory percentages of the compound according to the present disclosure on NMDAR-mediated current=[…]/NMDAR mediated-current before administration*100%.

[2] = high dose 150 mg/kg bw, formate, 150 mg/kg
[3] = medium dose 100 mg/kg body weight, formate, 100 mg/kg
[4] = medium dose 100 mg/kg body weight
[5] = NMDAR-mediated current, HEK293 cells expressing human GluN1/GluN2A, 100 μM glutamic acid, clamped at −70 mV, compound 10 μM, read-out: current inhibitory percentages
[6] = medium dose 100 mg/kg body weight, hydrochloride, 100 mg/kg

## Clc1cccc(C23CCCCC2OCCN3)c1 (racemic) [Compound 9, 4a-(3-chlorophenyl)octahydro-2H-benzo[b][1,4]oxazine formate]
mice; [2]
  behavior during observation: the state of anesthesia of mice returned to normal after half an hour; also recorded: the state of anesthesia lasted for half an hour
mice; [3]
  behavior during observation: intermittent shaky waking, lying still on the stomach, and tail stiffness (seizure for about 10 seconds); also recorded: Moderate epilepsy
mice; [4]
  Rodent Epileptiform Behavior Scale score (maximum): 3
[1]; [5]
  inhibition at 10 µM: 88.8%

## Clc1ccccc1C12CCCCC1OCCN2 (racemic) [Compound 11, 4a-(2-chlorophenyl)octahydro-2H-benzo[b][1,4]oxazine formate]
mice; [2]
  behavior during observation: the activity reduction in mice lasted for half an hour before returning to normal
mice; [3]
  behavior during observation: decreased activity; also recorded: Mild epilepsy
mice; [4]
  Rodent Epileptiform Behavior Scale score (maximum): 1
[1]; [5]
  inhibition at 10 µM: 85%

## Clc1cccc([C@]23CCCC[C@H]2OCCN3)c1 [Compound 41, (4aR,8aR)-4a-(3-chlorophenyl)octahydro-2H-benzo[b][1,4]oxazine hydrochloride]
mice; [6]
  behavior during observation: slightly shaky walking; also recorded: Slight shaking
[1]; [5]
  inhibition at 10 µM: 92.9%

## Clc1cccc([C@@]23CCCC[C@@H]2OCCN3)c1 [Compound 42, (4aS,8aS)-4a-(3-chlorophenyl)octahydro-2H-benzo[b][1,4]oxazine hydrochloride]
mice; [6]
  behavior during observation: slightly shaky walking; also recorded: Slight shaking
[1]; [5]
  inhibition at 10 µM: 105%

## Clc1ccccc1[C@]12CCCC[C@H]1OCCN2 [Compound 43, (4aR,8aR)-4a-(2-chlorophenyl)octahydro-2H-benzo[b][1,4]oxazine hydrochloride]
mice; [6]
  behavior during observation: no obvious abnormalities; also recorded: No abnormal

## Clc1ccccc1[C@@]12CCCC[C@@H]1OCCN2 [Compound 44, (4aS,8aS)-4a-(2-chlorophenyl)octahydro-2H-benzo[b][1,4]oxazine hydrochloride]
mice; [6]
  behavior during observation: no obvious abnormalities; also recorded: No abnormal

## CNC1(c2ccccc2Cl)CCCCC1=O (centres unmarked) [Ketamine, reference compound]
mice; high dose 150 mg/kg bw, 150 mg/kg
  behavior during observation: dead
mice; high dose 150 mg/kg bw, listed as ketamine, 150 mg/kg
  behavior during observation: Mice died
[1]; HEK293, read-out: current inhibitory percentages
  inhibition at 10 µM: 102%
